This is an account of results in the METLIN SMRT retention time set (Domingo-Almenara et al. 2019).

A short description of this series: gradient 5% acetonitrile 3 min, to 50% in 2 min, to 85% in 15 min, held 3 min, 100 µL/min. As to conditions: column: Zorbax Extend-C18 2.1 x 50 mm; eluents: water / acetonitrile, 0.1% formic acid. The essentials: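 Using water and acetonitrile that each contained 0.1% formic acid, mixtures of ~100 pure standards were separated at 100 μL/min on a Zorbax Extend-C18 column (2.1 × 50 mm, 1.8 μm). The HPLC fed a quadrupole time-of-flight mass spectrometer working in positive and negative ionization mode, with dead and dwell volumes of 40 μL and 900 μL. Data were acquired over 3 months. Retention time was read from computationally picked adduct peaks after manual inspection of each.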
`Cc1ccc(NC(=O)N2CCC(N3CCN(Cc4ccccc4)C(=O)C3=O)CC2)cc1C` yielded an RP-LC retention time of 780 s.

`Cc1ccc(CNC(=O)Cn2ccnc2-c2ccnc(N3CCCC3)c2)cc1` displayed an RP-LC retention time of 602 s.

Compound `CCCCS(=O)(=O)NC1CCCC(OC(=O)Nc2ccc(F)cc2)C1` (stereo not drawn) registered an RP-LC retention time of 883 s.

In turn, `Cc1ccc(CN2CCN(C3CCN(C(=O)Nc4ccc5c(c4)OCCO5)CC3)C(=O)C2=O)cc1` displayed an RP-LC retention time of 715 s.

`O=C(Cn1nnc2ccccc2c1=O)Nc1nc2ccccc2[nH]1` gave an RP-LC retention time of 597 s.

As for `Cc1nc(C(=O)NCc2cccc(Cl)c2)c(C)o1`, the RP-LC retention time turned out to be 871 s.

The compound `CC(=O)Nc1ccc(CCc2nc3ccc(C(=O)NCc4ccc5c(c4)OCO5)cc3[nH]2)cc1` displayed an RP-LC retention time of 618 s.

`CCOC(=O)C1CCCN(Cc2nc3nc(C)cc(N4CCOCC4)n3n2)C1` (stereo not drawn): the RP-LC retention time stood at 576 s.

Regarding `CCOc1ccccc1-c1noc(Cn2c(=O)n(CC(C)C)c(=O)c3ccccc32)n1`, the RP-LC retention time was found to be 1150 s.

With `Cc1ccc(Sc2nccnc2N2CCC(C(=O)NCC3CCCO3)CC2)cc1` (stereo not drawn), the RP-LC retention time was 814 s.

`CCCCN(CC)S(=O)(=O)c1cc(-c2nnc(C)o2)co1` showed an RP-LC retention time of 869 s.

In turn, `Cc1ccccc1N1C(=O)CN(S(=O)(=O)c2ccccc2)CC1(C)C(=O)NCCC(C)C` (stereo not drawn) yielded an RP-LC retention time of 970 s.

The compound `COC(=O)c1sccc1NC(=O)N1CCCn2nc(-c3cccs3)cc2C1` returned an RP-LC retention time of 984 s.

Turning to `O=C1NC(=O)[C@@H](c2cn3c4c(cccc24)CCC3)[C@@H]1c1c[nH]c2ccccc12`, the RP-LC retention time amounted to 947 s.

Compound `CN1CCN(c2nnc(SCC(=O)Nc3cccc(C(F)(F)F)c3)s2)CC1` registered an RP-LC retention time of 560 s.

`COCCc1noc(-c2cnc3nc(C)ccc3c2Nc2ccc(OC)cc2)n1` registered an RP-LC retention time of 681 s.

As for `CCCCNC(=O)C1c2cc(OC)c(OC)cc2C(=O)N(C)C1c1ccc(OC)c(OC)c1` (stereo not drawn), the RP-LC retention time is 710 s.

`CC(C)CCN1C(=O)CN(S(=O)(=O)c2ccccc2)CC1(C)C(=O)NCc1ccc(F)cc1` (stereo not drawn) gave an RP-LC retention time of 1030 s.

In turn, `Cc1c(-c2ccnc(N3CCOCC3)n2)cnc2nc(-c3ccc(Cl)cc3)nn12` registered an RP-LC retention time of 1030 s.

In turn, `CCCn1ccc2sc(C)c(C(=O)NC3CCN(Cc4ccccc4)CC3)c2c1=O` displayed an RP-LC retention time of 625 s.

`Cc1ccc(NC(=O)Cn2c(C)nc3c(sc4nc(-c5ccccc5)ccc43)c2=O)cc1C` yielded an RP-LC retention time of 1120 s.

For the compound `Cc1cc(NC(=O)CSc2ccc(-c3cccc([N+](=O)[O-])c3)nn2)no1`, the RP-LC retention time was 752 s.

`Cc1cc(C)c(C)c(S(=O)(=O)N2CC(=O)N(CC3CC3)CC23CCCC3)c1C` gave an RP-LC retention time of 1170 s.

In turn, `CCCN(CCC)CCc1c[nH]c2ccc(C(N)=O)cc12` gave an RP-LC retention time of 640 s.

Turning to `O=C(Nc1nc(-c2ccccc2)cs1)C1Cc2ccccc2CN1S(=O)(=O)c1cccs1` (stereo not drawn), the RP-LC retention time was determined as 1160 s.

Compound `CC(=O)N1CCC(c2nc(C)c(C(=O)O)s2)CC1` had an RP-LC retention time of 588 s.

With `CCC(C)NC(=O)Cn1c(=O)cc(-c2nc(C)no2)c2ccccc21` (stereo not drawn), the RP-LC retention time was determined as 755 s.

Compound `Cc1cc(C)n(CC(C)C(=O)Nc2ccc(Br)cc2)n1` (stereo not drawn) displayed an RP-LC retention time of 800 s.

In turn, `Cc1ccc(-n2ccc(=O)c(-c3nc(-c4ccc(Cl)c(F)c4)no3)n2)cc1` displayed an RP-LC retention time of 1050 s.

Compound `Cn1cc(C=C2C(=O)Nc3cccnc32)c2ccccc21` showed an RP-LC retention time of 750 s.

Compound `Cc1ccc(Cn2nnc3cc(C(=O)N4CCN(c5ncccn5)CC4)ccc32)cc1` returned an RP-LC retention time of 822 s.

`Cc1cc(C(=O)Nc2ccc(N3CCOCC3)cc2)nc2cc(-c3ccccn3)nn12` registered an RP-LC retention time of 802 s.

In the case of `O=c1n(Cc2cccc(Cl)c2)nc2c(S(=O)(=O)N3CCCCC3)cccn12`, the RP-LC retention time amounted to 935 s.

`O=C(NCc1ccc(C(F)(F)F)cc1)C1CCCN(c2nccnc2Sc2ccccc2)C1` (stereo not drawn) came in with an RP-LC retention time of 1140 s.

`O=C(Cn1cnc2onc(-c3ccc(Cl)cc3)c2c1=O)N1CCCc2ccccc21` displayed an RP-LC retention time of 1100 s.

Take `O=C(c1cc(-c2ccncc2)n[nH]1)N1CCCC(C(=O)N2CCN(c3ncccn3)CC2)C1` (stereo not drawn): the RP-LC retention time was determined as 579 s.

The compound `O=C(Cc1csc(NC(=O)Nc2ccccc2)n1)NCCc1c[nH]c2ccccc12` came in with an RP-LC retention time of 891 s.

Compound `CCn1nccc1-c1cccc(-c2noc(C(NC(=O)c3ccco3)C(C)C)n2)c1` (stereo not drawn) had an RP-LC retention time of 973 s.

`COc1ccc(-n2c(=O)c(C(=O)Nc3ccc(F)c(Cl)c3)c(O)c3cccnc32)cc1` yielded an RP-LC retention time of 1370 s.

Turning to `CCCCN1CCN(C(=O)c2cc(CC)n3nc(-c4ccccn4)cc3n2)CC1`, the RP-LC retention time came to 614 s.

Consider `COCc1nnc2n1CCC(NC(=O)C1CC=CC1)CC2` (stereo not drawn), for which the RP-LC retention time stood at 587 s.

Compound `Cc1ccc(-c2noc(C3CCCN3C(=O)C(NS(=O)(=O)c3ccc(C)cc3)C(C)C)n2)cc1` (stereo not drawn) displayed an RP-LC retention time of 1150 s.

Regarding `Cc1cccc(CNC(=O)Cn2c(C)cc(-c3nnc(C4CCC4)o3)c2C)c1`, the RP-LC retention time stood at 883 s.

Regarding `O=C(NCc1c(F)cccc1F)C(=O)Nc1ccccc1Cl`, the RP-LC retention time amounted to 971 s.

Compound `O=C(Cn1nc2nc(N3CCCC3)ccn2c1=O)Nc1ccc(Cl)cc1` had an RP-LC retention time of 714 s.

`CCC(=O)N1CCc2cc(S(=O)(=O)CCC(=O)N3CC(C)CC(C)C3)ccc21` (stereo not drawn) returned an RP-LC retention time of 871 s.

Consider `COc1ccccc1NC(=O)C1CC(=O)N(c2ccc3c(c2)CCN3C(=O)C2CC2)C1` (stereo not drawn), for which the RP-LC retention time was 778 s.

The compound `O=c1c2ccccc2c2ccccc2c(=O)n1Cc1ccco1` yielded an RP-LC retention time of 966 s.

For the compound `CCCSCCCNC(=O)c1cc2n(n1)CCCN(Cc1ccc(C)cc1)C2=O`, the RP-LC retention time was 852 s.

Regarding `Cc1nn(-c2nc3ccccc3[nH]2)c2c1C(=O)CC(c1cccs1)C2` (stereo not drawn), the RP-LC retention time was determined as 967 s.

`COc1ccc(-n2ncc3c(=O)n(Cc4nc(-c5ccc(C)c(C)c5)no4)cnc32)cc1` displayed an RP-LC retention time of 1080 s.

Compound `Cc1ccc(-c2csc(NC(=O)CSc3nnc(-c4cc5ccccc5o4)n3C)n2)cc1` yielded an RP-LC retention time of 1050 s.

In turn, `CCN(CC)S(=O)(=O)c1ccc2c(c1)N(CC(=O)NCc1ccccc1C)C(=O)C1CCCCN21` (stereo not drawn) returned an RP-LC retention time of 1020 s.

In the case of `COc1ccc(-c2ncc(C(=O)Nc3ccc(OC)cc3OC)c(-c3ccncc3)n2)cc1`, the RP-LC retention time is 839 s.

`COCCn1cc(C(=O)NC2CCCCC2)c2nn(-c3ccccc3)c(=O)c-2c1` gave an RP-LC retention time of 925 s.

The compound `O=C(Nc1nnc(SCCN2CCOCC2)s1)C1CCC1` displayed an RP-LC retention time of 544 s.

On to `COCCCNC(=O)c1ccc(-c2ccc(N3CCSCC3)nc2)cc1`, for which the RP-LC retention time worked out at 646 s.

As for `CN(c1cccc(Cl)c1)S(=O)(=O)c1cc2n(c1)CCCNC2=O`, the RP-LC retention time is 726 s.

The compound `Cn1c(C2CCN(C(=O)Nc3cccc(C(F)(F)F)c3)CC2)cc(=O)n2nccc12` showed an RP-LC retention time of 717 s.

Turning to `O=C(Cc1ccc2c(c1)OCO2)Nc1nc2c(s1)Cc1ccccc1-2`, the RP-LC retention time worked out at 878 s.

For `Cc1oc(-c2cccc(Cl)c2)nc1CN1CCN(C(=O)NC2CCCC2)CC1`, the RP-LC retention time was 690 s.

Regarding `O=C(Cc1cccc(F)c1)N1CCC(n2nc(-c3ccsc3)ccc2=O)CC1`, the RP-LC retention time worked out at 812 s.

The compound `O=C(NCc1ccc(F)cc1)Nc1c(-c2ccc(F)cc2)nc2ccccn12` gave an RP-LC retention time of 663 s.

Take `CC(C)c1ccc(-c2nc3ncccn3c2NCc2ccc(Cl)cc2)cc1`: the RP-LC retention time was found to be 936 s.

As for `O=C(Cn1cccc1-c1nnc(-c2ccccc2)o1)NCc1ccccc1`, the RP-LC retention time turned out to be 882 s.

As to `Cc1ccc(NC(=O)c2cccc([N+](=O)[O-])c2O)c([N+](=O)[O-])c1`, the RP-LC retention time was found to be 982 s.

For the compound `COc1cccc(CNC(=O)c2nnc(-c3ccc(S(=O)(=O)N4CCC(C)CC4)cc3)o2)c1`, the RP-LC retention time stood at 1030 s.

In turn, `O=C(Cc1cccs1)N1CCn2c(nnc2-c2ccccc2)C1` displayed an RP-LC retention time of 679 s.

`COc1ccc(-c2cn3c(CC(=O)Nc4ccc(Cl)cn4)csc3n2)cc1OC` displayed an RP-LC retention time of 715 s.

`Cn1nc(-c2nc(C3CC3)no2)c2c1CCN(C(=O)c1cc(F)ccc1F)C2` gave an RP-LC retention time of 860 s.

`CCOCCCNC(=O)c1c(N)n(-c2ccc(C(C)=O)cc2)c2nc3ccccc3nc12` came in with an RP-LC retention time of 876 s.

`O=C1NC2CCCCC2C2=NC(CN3CCN(c4ccccc4)CC3)CN12` (stereo not drawn): the RP-LC retention time stood at 655 s.

Regarding `CCC1CN2C=NC(N3CCN(C(=O)Cc4ccccc4)CC3)=CC2=N1` (stereo not drawn), the RP-LC retention time was found to be 615 s.

Compound `COc1ccc2c(c1)c(N1CCCC1=O)c(C(=O)NCCc1ccc(OC)c(OC)c1OC)n2C` came in with an RP-LC retention time of 858 s.

`O=C(NCc1cccnc1)c1cc(-c2ccc3c(c2)OCO3)nc2ccccc12` came in with an RP-LC retention time of 665 s.

With `CCN1C(=O)COc2ccc(-c3csc(NC(=O)CCc4ccc(C)cc4)n3)cc21`, the RP-LC retention time came out at 1070 s.

Consider `COc1cc(NC(=O)Cn2cnc3nc(N4CCCC4)ncc3c2=O)cc(OC)c1`, for which the RP-LC retention time was 703 s.

For the compound `Cc1cc(C)c2nc(C)cc(C(=O)NCc3ccc(C)o3)c2c1`, the RP-LC retention time came to 735 s.
